Assay results: ChEMBL document CHEMBL3621041, “Optimization of a Novel Binding Motif to (E)-3-(3,5-Difluoro-4-((1R,3R)-2-(2-fluoro-2-methylpropyl)-3-methyl-2,3,4,9-tetrahydro-1H-pyrido[3,4-b]indol-1-yl)phenyl)acrylic Acid (AZD9496), a Potent and Orally Bioavailable Selective Estrogen Receptor Downregulator and Antagonist” (J Med Chem, 2015)
In brackets after ≈: the same amount, converted by molar mass. Activity calls are given as the source filed them. The calls are words filed in the database; no cut-off is given here.

How the values were obtained:
Progesterone receptor [1] = target: T1, Progesterone receptor (Homo sapiens, UniProt P06401); experiment: Agonist activity at progesterone receptor in human MCF7 cells; assay type: cell-based
T1 sequence (P06401 whole entry): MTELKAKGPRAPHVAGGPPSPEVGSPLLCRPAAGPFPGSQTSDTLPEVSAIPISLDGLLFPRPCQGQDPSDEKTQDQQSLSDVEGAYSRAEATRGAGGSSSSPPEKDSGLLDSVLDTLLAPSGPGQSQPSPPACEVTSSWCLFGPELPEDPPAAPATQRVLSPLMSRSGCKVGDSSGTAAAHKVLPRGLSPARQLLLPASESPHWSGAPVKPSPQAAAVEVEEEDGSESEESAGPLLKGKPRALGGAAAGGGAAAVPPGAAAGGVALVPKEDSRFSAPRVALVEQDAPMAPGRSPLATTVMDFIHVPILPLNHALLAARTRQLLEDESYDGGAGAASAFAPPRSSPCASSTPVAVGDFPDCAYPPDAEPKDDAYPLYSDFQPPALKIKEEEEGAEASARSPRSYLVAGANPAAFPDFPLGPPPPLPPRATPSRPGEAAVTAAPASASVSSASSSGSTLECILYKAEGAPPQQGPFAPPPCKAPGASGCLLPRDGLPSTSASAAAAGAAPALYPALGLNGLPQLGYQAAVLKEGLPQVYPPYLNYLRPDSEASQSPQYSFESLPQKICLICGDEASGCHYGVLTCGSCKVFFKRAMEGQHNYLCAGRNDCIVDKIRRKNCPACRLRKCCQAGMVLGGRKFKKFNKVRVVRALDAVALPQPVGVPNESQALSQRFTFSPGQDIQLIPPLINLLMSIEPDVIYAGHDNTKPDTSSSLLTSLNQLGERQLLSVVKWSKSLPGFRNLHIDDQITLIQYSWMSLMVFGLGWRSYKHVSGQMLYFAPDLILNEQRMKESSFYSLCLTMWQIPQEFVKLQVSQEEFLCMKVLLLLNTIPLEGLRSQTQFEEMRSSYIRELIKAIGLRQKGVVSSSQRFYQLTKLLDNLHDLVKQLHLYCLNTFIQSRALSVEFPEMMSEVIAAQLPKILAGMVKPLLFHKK

[2] = target: T2, Progesterone receptor (Homo sapiens) (UniProt P06401); experiment: Agonist activity at progesterone receptor (unknown origin) at 100 uM
T2 sequence (whole entry): T1 sequence (P06401 whole entry)

MCF7 = experiment: cells; conditions: Homo sapiens, MCF7, read-out: pIC50 (converted)
Description: Antiproliferative activity against human MCF7 cells

Estrogen receptor [3] = target: T3, Estrogen receptor (Homo sapiens, UniProt P03372)
T3 sequence (P03372 whole entry): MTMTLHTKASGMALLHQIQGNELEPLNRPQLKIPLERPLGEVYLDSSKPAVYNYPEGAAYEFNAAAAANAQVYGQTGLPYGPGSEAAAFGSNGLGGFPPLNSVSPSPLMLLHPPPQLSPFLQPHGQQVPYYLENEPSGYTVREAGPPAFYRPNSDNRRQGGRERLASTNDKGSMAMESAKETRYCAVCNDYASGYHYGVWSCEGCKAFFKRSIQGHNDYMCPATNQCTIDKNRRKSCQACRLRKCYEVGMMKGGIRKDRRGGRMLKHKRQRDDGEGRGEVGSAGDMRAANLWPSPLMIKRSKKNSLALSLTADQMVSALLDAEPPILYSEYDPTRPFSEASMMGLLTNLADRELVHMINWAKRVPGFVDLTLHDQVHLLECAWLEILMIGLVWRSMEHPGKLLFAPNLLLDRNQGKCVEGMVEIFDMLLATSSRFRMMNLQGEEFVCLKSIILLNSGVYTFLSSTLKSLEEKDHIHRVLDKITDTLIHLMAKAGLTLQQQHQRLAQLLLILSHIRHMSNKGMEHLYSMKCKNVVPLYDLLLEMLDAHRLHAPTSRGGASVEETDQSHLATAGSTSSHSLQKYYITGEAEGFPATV
Description: Binding affinity to ERalpha receptor (unknown origin)

Estrogen receptor [4] = target: T3, Estrogen receptor; remark: listed apart in the source
Description: Antagonist activity at ERalpha receptor in human MCF7 cells

[5] = Lipophilicity, log D of the compound at pH 7.4; assay type: physicochemical; conditions: buffer
[6] = Thermodynamic solubility of the compound in 0.1 M phosphate buffer at pH 7.4 after 24 hrs; assay type: physicochemical; conditions: read-out: Therm_solubility
[7] = Fraction unbound in Han Wistar rat 10% plasma by equilibrium dialysis; assay type: ADME, cell-free
[8] = Intrinsic clearance in rat cryopreserved hepatocytes assessed per 10^6 cells; assay type: ADME, cell-based, Hepatocyte; conditions: read-out: CLH
[9] = Intrinsic clearance in human cryopreserved hepatocytes assessed per 10^6 cells; assay type: ADME, cell-based, Hepatocyte; conditions: read-out: CLH
Androgen receptor = target: T4, Androgen receptor (Homo sapiens, UniProt P10275); experiment: Binding affinity to androgen receptor (unknown origin); conditions: read-out: pIC50 (converted)
T4 sequence (P10275 whole entry): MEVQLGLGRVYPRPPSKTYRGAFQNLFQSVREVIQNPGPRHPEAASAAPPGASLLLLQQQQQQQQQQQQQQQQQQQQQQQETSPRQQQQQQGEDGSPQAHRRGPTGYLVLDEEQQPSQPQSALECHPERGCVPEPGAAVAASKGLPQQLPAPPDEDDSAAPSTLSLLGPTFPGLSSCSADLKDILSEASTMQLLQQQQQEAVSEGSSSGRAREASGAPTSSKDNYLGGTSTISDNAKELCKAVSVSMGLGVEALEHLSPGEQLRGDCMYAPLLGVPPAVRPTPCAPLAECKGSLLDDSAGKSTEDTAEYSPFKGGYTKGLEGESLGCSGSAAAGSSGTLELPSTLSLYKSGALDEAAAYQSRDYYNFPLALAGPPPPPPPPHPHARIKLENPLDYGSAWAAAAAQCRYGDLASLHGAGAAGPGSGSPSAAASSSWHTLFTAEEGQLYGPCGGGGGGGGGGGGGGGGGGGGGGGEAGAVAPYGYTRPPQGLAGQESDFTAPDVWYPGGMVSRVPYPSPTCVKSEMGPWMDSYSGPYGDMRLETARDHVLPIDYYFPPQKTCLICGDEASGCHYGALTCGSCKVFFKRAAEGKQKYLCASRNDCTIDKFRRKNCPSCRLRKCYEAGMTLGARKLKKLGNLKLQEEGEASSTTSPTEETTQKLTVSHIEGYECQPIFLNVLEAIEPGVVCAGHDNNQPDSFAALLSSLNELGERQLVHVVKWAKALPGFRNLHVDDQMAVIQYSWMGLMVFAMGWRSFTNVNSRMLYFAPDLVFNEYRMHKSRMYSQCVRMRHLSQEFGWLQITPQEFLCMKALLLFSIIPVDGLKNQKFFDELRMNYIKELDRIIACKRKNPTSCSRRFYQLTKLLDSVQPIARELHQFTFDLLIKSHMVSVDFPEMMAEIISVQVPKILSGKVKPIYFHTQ

Progesterone receptor [10] = target: T1, Progesterone receptor; experiment: Binding affinity to progesterone receptor (unknown origin)
Glucocorticoid receptor = target: T5, Glucocorticoid receptor (Homo sapiens, UniProt P04150); experiment: Binding affinity to glucocorticoid receptor (unknown origin); conditions: read-out: pIC50 (converted)
T5 sequence (P04150 whole entry): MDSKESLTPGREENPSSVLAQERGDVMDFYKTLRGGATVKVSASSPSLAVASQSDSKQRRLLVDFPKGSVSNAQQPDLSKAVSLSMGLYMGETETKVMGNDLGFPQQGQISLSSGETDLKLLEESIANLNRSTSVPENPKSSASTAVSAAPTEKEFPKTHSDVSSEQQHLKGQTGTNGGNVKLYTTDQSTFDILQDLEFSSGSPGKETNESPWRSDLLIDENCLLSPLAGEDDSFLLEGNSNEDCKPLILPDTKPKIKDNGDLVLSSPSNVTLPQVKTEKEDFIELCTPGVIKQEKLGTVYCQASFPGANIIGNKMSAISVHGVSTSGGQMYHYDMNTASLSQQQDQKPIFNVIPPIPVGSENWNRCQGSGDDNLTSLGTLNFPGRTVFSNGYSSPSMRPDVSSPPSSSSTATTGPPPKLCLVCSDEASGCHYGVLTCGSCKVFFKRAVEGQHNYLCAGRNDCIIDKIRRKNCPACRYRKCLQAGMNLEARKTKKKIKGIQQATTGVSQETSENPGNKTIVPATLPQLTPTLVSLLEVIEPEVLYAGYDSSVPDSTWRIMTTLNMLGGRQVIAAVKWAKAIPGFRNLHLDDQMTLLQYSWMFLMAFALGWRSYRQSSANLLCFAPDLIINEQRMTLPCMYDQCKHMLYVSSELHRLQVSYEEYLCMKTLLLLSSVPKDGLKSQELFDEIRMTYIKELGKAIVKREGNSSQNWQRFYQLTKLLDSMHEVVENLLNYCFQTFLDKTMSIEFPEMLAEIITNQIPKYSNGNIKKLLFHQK

[11] = Fraction unbound in human 10% plasma by equilibrium dialysis; assay type: ADME, cell-free
[12] = Volume of distribution at steady state in Han Wistar rat at 2 umol/kg, iv and 5 umol/kg, po; assay type: ADME, organism-based; conditions: in vivo, read-out: Vdss
[13] = Clearance in Han Wistar rat at 2 umol/kg, iv and 5 umol/kg, po; assay type: ADME, organism-based; conditions: in vivo
[14] = Oral bioavailability in Han Wistar rat at 5 umol/kg; assay type: ADME, organism-based; conditions: in vivo

Row | SMILES | IC50 (Progesterone receptor [1]) | IC50 (MCF7) | IC50 (Estrogen receptor [3]) | IC50 (Estrogen receptor [4]) | also measured
1 | CC/C(=C(\c1ccc(O)cc1)c1ccc(/C=C/C(=O)O)cc1)c1ccccc1 | > 31600 nM |  |  |  | percent agonist activity [2]: inactive
2 | C[C@@H]1Cc2c([nH]c3ccccc23)[C@@H](c2ccc(/C=C/C(=O)O)cc2)N1CC(C)(C)F | > 3160 nM | 0.324 nM |  |  | 
3 | C[C@@H]1Cc2c([nH]c3ccc(O)cc23)[C@@H](c2ccc(Cl)cc2)N1CCO | 33.1 nM | > 31600 nM | 22.4 nM | 43.7 nM | 
4 | CC(C)CN1[C@H](c2c(F)cc(/C=C/C(=O)O)cc2F)c2[nH]c3ccccc3c2C[C@H]1C | > 3160 nM | 0.229 nM | 0.708 nM | 0.417 nM | 
5 | OCCN1CCc2c([nH]c3ccccc23)C1c1ccc(Cl)cc1 (racemic) | > 100000 nM |  | 2040 nM | 1170 nM | logD [5]: 3.7; solubility thermodynamic at 24 h [6]: 15 µM (≈ 4.9 µg/mL); fraction unbound [7]: 0.045; hepatocyte CLint [8]: 300 µL/min/1e6 cells; hepatocyte CLint [9]: 70 µL/min/1e6 cells; IC50 (Androgen receptor): > 31600 nM; IC50 (Progesterone receptor [10]): > 31600 nM; IC50 (Glucocorticoid receptor): > 31600 nM
6 | C[C@@H]1Cc2c([nH]c3ccccc23)[C@@H](c2ccc(Cl)cc2)N1CCO | > 100000 nM | 13800 nM | 39.8 nM | 85.1 nM | percent agonist activity [2]: 15%
7 | C[C@]12CC[C@@H]3c4ccc(O)cc4C[C@@H](CCCCCCCCC[S+]([O-])CCCC(F)(F)C(F)(F)F)[C@H]3[C@@H]1CC[C@@H]2O (some centres not stated) [FULVESTRANT] | > 100000 nM | 0.1 nM |  |  | 
8 | C[C@@H](CO)CN1[C@H](c2ccc(/C=C/C(=O)O)cc2)c2[nH]c3ccccc3c2C[C@H]1C | > 100000 nM |  | 97.7 nM | 45.7 nM | 
9 | CC/C(=C(\c1ccccc1)c1ccc(/C=C/C(=O)O)cc1)c1ccccc1 | > 100000 nM | 295 nM |  |  | percent agonist activity [2]: inactive
10 | CC/C(=C(\c1ccccc1)c1ccc(OCCN(C)C)cc1)c1ccccc1 [TAMOXIFEN] |  | 57.5 nM |  |  | 
11 | CCC(=C(c1ccc(O)cc1)c1ccc(OCCN(C)C)cc1)c1ccccc1 | > 100000 nM | 0.537 nM |  |  | 
12 | C[C@@H]1Cc2c([nH]c3ccccc23)[C@@H](c2ccc(/C=C/C(=O)O)cc2)N1CCO | > 100000 nM | 813 nM | 692 nM | 1320 nM | 
13 | C[C@H](CO)CN1[C@H](c2ccc(/C=C/C(=O)O)cc2)c2[nH]c3ccccc3c2C[C@H]1C | > 100000 nM | 22.4 nM | 69.2 nM | 46.8 nM | logD [5]: 1.6; solubility thermodynamic at 24 h [6]: > 1400 µM; fraction unbound [7]: 0.091; fraction unbound [11]: 0.046; hepatocyte CLint [8]: 21 µL/min/1e6 cells; hepatocyte CLint [9]: 26 µL/min/1e6 cells
14 | O=C(O)CCN1CCc2c([nH]c3ccccc23)C1c1ccc(Cl)cc1 (racemic) | > 31600 nM |  | 13800 nM | 3720 nM | logD [5]: 1.6; solubility thermodynamic at 24 h [6]: > 1600 µM; fraction unbound [7]: 0.072; hepatocyte CLint [8]: 29 µL/min/1e6 cells; hepatocyte CLint [9]: 19 µL/min/1e6 cells; Vd [12]: 0.6 L/kg; clearance [13]: 4 mL/min/kg; bioavailability [14]: 85%
15 | C[C@@H]1Cc2c([nH]c3ccccc23)[C@@H](c2ccc(Cl)cc2)N1CCC(=O)O | > 100000 nM | > 25100 nM | 1780 nM | 776 nM | percent agonist activity [2]: 15%
16 | C[C@@H]1Cc2c([nH]c3ccccc23)[C@@H](c2ccc(Cl)cc2)N1C[C@H](C)C(=O)O | 12.9 nM | > 31600 nM | 70.8 nM | 30.2 nM | logD [5]: 2.8; solubility thermodynamic at 24 h [6]: 1440 µM (≈ 551 µg/mL); fraction unbound [7]: 0.032; fraction unbound [11]: 0.015; hepatocyte CLint [8]: 82 µL/min/1e6 cells; hepatocyte CLint [9]: 23 µL/min/1e6 cells; Vd [12]: 0.34 L/kg; clearance [13]: 14 mL/min/kg; bioavailability [14]: 42%
